Biological target: T1, Recombinant human mPGES-1 (Homo sapiens, UniProt O14684)
T1 construct: made in house; host or cells: CHO cells (crude microsomal fractions)
T1 sequence (O14684 1-152): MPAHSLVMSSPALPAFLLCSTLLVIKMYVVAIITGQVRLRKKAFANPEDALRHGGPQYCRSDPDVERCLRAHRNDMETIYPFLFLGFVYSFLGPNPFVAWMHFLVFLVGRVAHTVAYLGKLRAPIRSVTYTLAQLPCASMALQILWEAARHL
Assay: In-vitro screening of mPGES-1 inhibitors (inhibition of PGE2 formation from PGH2, HTRF detection)
Assay type: biochemical
Details: mPGES-1 enzyme; for inhibition at 1 µM: 1 μM test compound, read-out: Percentage inhibition at 1 μM; for inhibition at 10 µM: 10 μM test compound, read-out: Percentage inhibition at 10 μM; for IC50: class symbols
Description: In-Vitro Protocol for Screening of mPGES-1 Inhibitors: mPGES-1 (Microsomal prostaglandin E synthase-1) is a microsomal enzyme that converts endoperoxide substrate PGH2 (prostaglandin H2) to product PGE2 (prostaglandin E2) by isomerization in the presence of reduced glutathione (GSH). mPGES-1 inhibitors were screened by assessing their ability to inhibit formation of PGE2 from PGH2 in the presence of mPGES-1 using an anti-PGE2 antibody based detection method. Recombinant human mPGES-1 was generated in-house by expression in CHO cells (Ouellet M et al. (2002), Protein Expression and Purification 26: 489-495). The assay was set up using crude microsomal fractions at a protein concentration of 40-60 μg/mL. Test compounds were prepared in 100% dimethyl sulfoxide (DMSO) to obtain 20 mM stock solution and then diluted using assay buffer comprising 0.1 M Potassium phosphate buffer with 2 mM EDTA. The final concentration of DMSO in the reaction was 0.5% (v/v). Negative controls were comprised of all assay reagents except the enzyme. Positive controls were comprised of the enzyme reaction in the absence of any inhibitor. Test compounds were incubated for 10 minutes in assay buffer containing 2.5 mM GSH and mPGES-1 enzyme followed by addition of PGH2 at a concentration of 15 μM for 1 minute. The reaction was stopped by addition of Stannous chloride (11 mg/ml) and PGE2 levels were measured ([…] et al. (2005), Journal of Biomolecular Screening 10(6) 599-605; Goedken R E et al. (2008), Journal of Biomolecular Screening 13 (7): 619-625) by HTRF kit (CisBio)). Inhibition of mPGES-1 enzyme activity was measured using the percent of reaction occurring in the positive control. Concentration response curves were plotted using percent inhibition of maximum enzyme reaction. The IC50 value was calculated from the concentration response curve by nonlinear regression analysis using GraphPad PRISM software.

Compound	inhibition at 1 µM (crude microsomal fractions)	inhibition at 10 µM (crude microsomal fractions)	inhibition at 3 µM (3 μM test compound, crude microsomal fractions, read-out: Percentage inhibition at 3 μM)	IC50
[O-][S+]1NC(c2c(F)cccc2Cl)=NN1c1ccc(Br)cc1 (stereo not drawn) [Example-1, 2-(4-Bromophenyl)-4-(2-chloro-6-fluorophenyl)-2,5-dihydro-1,2,3,5-thiatriazole-1-oxide]	9.32%	68.2%	–	–
O=c1[nH]c(-c2c(F)cccc2Cl)nn1-c1ccc(-c2ccc(C(F)(F)F)nc2)cc1 [Example-2, 5-(2-Chloro-6-fluorophenyl)-2-{4-[6-(trifluoromethyl)pyridin-3-yl]phenyl}-2,4-dihydro-3H-1,2,4-triazol-3-one]	18%	19%	–	–
O=c1[nH]c(-c2c(F)cccc2Cl)nn1-c1ccc(C#Cc2ccccc2C(F)(F)F)cc1 [Example-3, 5-(2-Chloro-6-fluorophenyl)-2-(4-{[2-(trifluoromethyl)phenyl]ethynyl}phenyl)-2,4-dihydro-3H-1,2,4-triazol-3-one]	88.9%	–	96.8%	< 50 nM
Cc1csc(-c2ccc(-n3nc(-c4c(F)cccc4-c4cc(C)cs4)[nH]c3=O)cc2)c1 [Example-4, 5-[2-Fluoro-6-(4-methylthiophen-2-yl)phenyl]-2-[4-(4-methylthiophen-2-yl)phenyl]-2,4-dihydro-3H-1,2,4-triazol-3-one]	46.4%	69.7%	–	–
O=c1[nH]c(-c2c(F)cccc2Cl)nn1-c1ccc(C#Cc2ccc(F)nc2)cc1 [Example-5, 5-(2-Chloro-6-fluorophenyl)-2-{4-[(6-fluoropyridin-3-yl)ethynyl]phenyl}-2,4-dihydro-3H-1,2,4-triazol-3-one]	91.8%	86.2%	–	< 50 nM
O=c1[nH]c(-c2c(F)cccc2Cl)nn1-c1ccc(C#Cc2ccc(Cl)cc2F)cc1 [Example-6, 5-(2-Chloro-6-fluorophenyl)-2-{4-[(4-chloro-2-fluorophenyl)ethynyl]phenyl}-2,4-dihydro-3H-1,2,4-triazol-3-one]	83.9%	87.7%	–	< 50 nM
O=c1[nH]c(-c2c(F)cccc2Cl)nn1-c1ccc(C#Cc2ccc(C(F)(F)F)cc2Cl)cc1 [Example-7, 5-(2-Chloro-6-fluorophenyl)-2-(4-{[2-chloro-4-(trifluoromethyl)phenyl]ethynyl}phenyl)-2,4-dihydro-3H-1,2,4-triazol-3-one]	89.1%	95.2%	–	< 50 nM
O=c1[nH]c(-c2c(F)cccc2Cl)nn1-c1ccc(-c2cccc(OC(F)(F)F)c2)cc1 [Example-8, 5-(2-Chloro-6-fluorophenyl)-2-[3′-(trifluoromethoxy)biphenyl-4-yl]-2,4-dihydro-3H-1,2,4-triazol-3-one]	84.9%	87.2%	–	50 to 100 nM
O=c1[nH]c(-c2c(F)cccc2Cl)nn1-c1ccc(Nc2cccc(C(F)(F)F)c2)cc1 [Example-9, 5-(2-Chloro-6-fluorophenyl)-2-(4-{[3-(trifluoromethyl)phenyl]amino}phenyl)-2,4-dihydro-3H-1,2,4-triazol-3-one]	1.53%	23.2%	–	–
O=c1[nH]c(-c2c(F)cccc2Cl)nn1-c1ccc(C#Cc2cc(Cl)ccc2Cl)cc1 [Example-10, 5-(2-Chloro-6-fluorophenyl)-2-{4-[(2,5-dichlorophenyl)ethynyl]phenyl}-2,4-dihydro-3H-1,2,4-triazol-3-one]	84.9%	91.2%	–	< 50 nM
COCCCNc1nc(-c2c(F)cccc2Cl)nn1-c1ccc(Br)cc1 [Example-11, 1-(4-Bromophenyl)-3-(2-chloro-6-fluorophenyl)-N-(3-methoxypropyl)-1H-1,2,4-triazol-5-amine]	2.34%	71.7%	–	–
O=c1[nH]c(-c2c(F)cccc2Cl)nn1-c1ccc(C#Cc2cccc(Cl)c2F)cc1 [Example-12, 1-(4-((3-Chloro-2-fluorophenyl)ethynyl)phenyl)-3-(2-chloro-6-fluorophenyl)-1H-1,2,4-triazol-5(4H)-one]	84.8%	87.5%	–	< 50 nM
O=c1[nH]c(-c2c(F)cccc2Cl)nn1-c1ccc(C#Cc2ccc(C(F)(F)F)cn2)cc1 [Example-13, 5-(2-Chloro-6-fluorophenyl)-2-(4-{[5-(trifluoromethyl)pyridin-2-yl]ethynyl}phenyl)-2,4-dihydro-3H-1,2,4-triazol-3-one]	86.3%	90.4%	–	> 100 nM

The next lines start with the values.

inhibition at 1 µM (crude microsomal fractions)	inhibition at 10 µM (crude microsomal fractions)	inhibition at 3 µM (3 μM test compound, crude microsomal fractions, read-out: Percentage inhibition at 3 μM)	IC50	Compound
96%	95.8%	–	50 to 100 nM	O=c1[nH]c(-c2c(F)cccc2Cl)nn1-c1ccc(C#Cc2ccncc2Cl)cc1 [Example-14, 5-(2-Chloro-6-fluorophenyl)-2-{4-[(3-chloropyridin-4-yl)ethynyl]phenyl}-2,4-dihydro-3H-1,2,4-triazol-3-one]
64.2%	83.8%	–	–	O=c1[nH]c(-c2c(F)cccc2Cl)nn1-c1ccc(C#Cc2cnc(N3CCOCC3)nc2)cc1 [Example-15, 3-(2-Chloro-6-fluorophenyl)-1-(4-((2-morpholinopyrimidin-5-yl)ethynyl)phenyl)-1H-1,2,4-triazol-5(4H)-one]
40.9%	92.3%	–	–	O=c1[nH]c(-c2c(F)cccc2Cl)nn1-c1ccc(C#Cc2ccc(N3CCOCC3)nc2)cc1 [Example-16, 5-(2-Chloro-6-fluorophenyl)-2-(4-{[6-(morpholin-4-yl)pyridin-3-yl]ethynyl}phenyl)-2,4-dihydro-3H-1,2,4-triazol-3-one]
2.52%	44.1%	–	–	O=C(NCC1CC1)c1ccc(-n2nc(-c3c(F)cccc3Cl)[nH]c2=O)cc1 [Example-17, 4-[3-(2-Chloro-6-fluorophenyl)-5-oxo-4,5-dihydro-1H-1,2,4-triazol-1-yl]-N-(cyclopropylmethyl)benzamide]
56.2%	98.1%	–	–	O=C(NCc1ccccc1C(F)(F)F)c1ccc(-n2nc(-c3c(F)cccc3Cl)[nH]c2=O)cc1 [Example-18, 4-[3-(2-Chloro-6-fluorophenyl)-5-oxo-4,5-dihydro-1H-1,2,4-triazol-1-yl]-N-[2-(trifluoromethyl)benzyl]benzamide]
5.11%	29.7%	–	–	COc1ccc(-n2nc(-c3c(F)cccc3Cl)[nH]c2=O)cc1C(=O)NCC1CC1 [Example-19, 5-[3-(2-Chloro-6-fluorophenyl)-5-oxo-4,5-dihydro-1H-1,2,4-triazol-1-yl]-N-(cyclopropylmethyl)-2-methoxybenzamide]
22.4%	87.4%	–	–	COc1ccc(-n2nc(-c3c(F)cccc3Cl)[nH]c2=O)cc1C(=O)NCc1ccccc1C(F)(F)F [Example-20, 5-[3-(2-Chloro-6-fluorophenyl)-5-oxo-4,5-dihydro-1H-1,2,4-triazol-1-yl]-2-methoxy-N-[2-(trifluoromethyl)benzyl]benzamide]
76.1%	91.8%	–	–	COc1ccc(-n2nc(-c3c(F)cccc3Cl)[nH]c2=O)cc1C(=O)NC1(c2ccccc2C(F)(F)F)CC1 [Example-21, 5-[3-(2-Chloro-6-fluorophenyl)-5-oxo-4,5-dihydro-1H-1,2,4-triazol-1-yl]-2-methoxy-N-{1-[2-(trifluoromethyl)phenyl]cyclopropyl}benzamide]
39.3%	99.7%	–	–	O=C(NC1(c2ccc(C(F)(F)F)cc2)CC1)c1ccc(-n2nc(-c3c(F)cccc3Cl)[nH]c2=O)cc1 [Example-22, 4-[3-(2-Chloro-6-fluorophenyl)-5-oxo-4,5-dihydro-1H-1,2,4-triazol-1-yl]-N-{1-[4-(trifluoromethyl)phenyl]cyclopropyl}benzamide]
13.2%	52.9%	–	–	COc1ccc(-n2nc(-c3c(F)cccc3Cl)[nH]c2=O)cc1C(=O)NC1(c2ccc(C(F)(F)F)cc2)CC1 [Example-23, 5-[3-(2-Chloro-6-fluorophenyl)-5-oxo-4,5-dihydro-1H-1,2,4-triazol-1-yl]-2-methoxy-N-[1-[4-(trifluoromethyl)phenyl]cyclopropyl]benzamide]
71%	83.1%	–	–	O=C(NC1(c2ccccc2C(F)(F)F)CC1)c1ccc(-n2nc(-c3c(F)cccc3Cl)[nH]c2=O)cc1 [Example-24, 4-(3-(2-Chloro-6-fluorophenyl)-5-oxo-4,5-dihydro-1H-1,2,4-triazol-1-yl)-N-(1-(2-(trifluoromethyl)phenyl)cyclopropyl)benzamide]

Source: US10821100B2, “Triazolone compounds as mPGES-1 inhibitors” (Glenmark Pharmaceuticals S.A., priority 2012, dated 2020)
